Columns and labels:
Set-up in all cases: scale not given here
GALAP Galium = experiment: Postemergence herbicidal evaluation, GALAP; assay type: in vivo, Galium aparine; conditions: postemergence spray, rated about two-three weeks after treatment
In short: (§1)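 Two-week-old seedlings sprayed postemergence with compound in 80/20 acetone/water plus 1.0% methylated seed oil, at about 0.006–0.400 kg/ha, through a nozzle at 40 psi. Plants kept under greenhouse conditions and visually rated about two–three weeks after treatment; ratings from repeat tests averaged.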

SETVI Foxtail, Green = experiment: Postemergence herbicidal evaluation, SETVI; assay type: in vivo, Setaria viridis, (L.) Beau; conditions: postemergence spray, rated about two-three weeks after treatment
In short: as §1

GLXMAW Soybean, Williams = experiment: Postemergence herbicidal evaluation, GLXMAW; assay type: in vivo, Glycine max, (L.) Merr. cv Williams; conditions: postemergence spray, rated about two-three weeks after treatment
In short: as §1

ORYSAT Rice, Tebonnet = experiment: Postemergence herbicidal evaluation, ORYSAT; assay type: in vivo, Oryza sativa, (L.); conditions: postemergence spray, rated about two-three weeks after treatment
In short: as §1

[1] = system: TRZAWR Wheat, Winter, cv Riband; experiment: Preemergence herbicidal evaluation, TRZAWR; assay type: in vivo, Triticum aestivum; conditions: preemergence
In short: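 Seeds mixed with potting soil were planted on about one inch of soil in cups, then sprayed with the test compound in aqueous acetone at roughly 0.013 to 0.800 kg per hectare. Plants were kept under standard greenhouse care and injury was rated four to five weeks after treatment.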

In the case of `Cc1ccc(O)c(-n2nnc3cc(F)c(-n4c(=O)cc(C(F)(F)F)n(C)c4=O)cc32)c1` [Example 31, 3-[5-Fluoro-1-(2-Hydroxy-5-Methylphenyl)-1H-1,2,3-Benzotriazol-6-yl]-1-Methyl-6-(Trifluoromethyl)-2,4(1H,3H)-(Pyrimidinedione)], the “Postemergence herbicidal rating GALAP” value (GALAP Galium; 0.008 kg/ha) is reported as 0.0, the “Postemergence herbicidal rating GALAP” value (GALAP Galium; 0.016 kg/ha) is reported as 0.0 and the “Postemergence herbicidal rating GALAP” value (GALAP Galium; 0.032 kg/ha) is reported as 0.0. For the same molecule, the “Postemergence herbicidal rating GALAP” value (GALAP Galium; 0.062 kg/ha) was 0.0, the “Postemergence herbicidal rating SETVI” value (SETVI Foxtail, Green; 0.008 kg/ha) was 0.0 and the “Postemergence herbicidal rating SETVI” value (SETVI Foxtail, Green; 0.016 kg/ha) was 0.0. The “Postemergence herbicidal rating SETVI” value (SETVI Foxtail, Green; 0.032 kg/ha) was 0.0, the “Postemergence herbicidal rating SETVI” value (SETVI Foxtail, Green; 0.062 kg/ha) was 5.0 and the “Postemergence herbicidal rating GLXMAW” value (GLXMAW Soybean, Williams; 0.008 kg/ha) was 3.5. For the same molecule, the “Postemergence herbicidal rating GLXMAW” value (GLXMAW Soybean, Williams; 0.016 kg/ha) was 3.5, the “Postemergence herbicidal rating GLXMAW” value (GLXMAW Soybean, Williams; 0.032 kg/ha) was 4.5 and the “Postemergence herbicidal rating GLXMAW” value (GLXMAW Soybean, Williams; 0.062 kg/ha) was 5.0. The “Postemergence herbicidal rating ORYSAT” value (ORYSAT Rice, Tebonnet; 0.008 kg/ha) was 1.0, the “Postemergence herbicidal rating ORYSAT” value (ORYSAT Rice, Tebonnet; 0.016 kg/ha) was 1.0 and the “Postemergence herbicidal rating ORYSAT” value (ORYSAT Rice, Tebonnet; 0.032 kg/ha) was 1.5. The “Postemergence herbicidal rating ORYSAT” value (ORYSAT Rice, Tebonnet; 0.062 kg/ha) was 1.5, the TRZAWR herbicidal rating ([1]; rate 0.008 kg/ha) was 0.0 and the TRZAWR herbicidal rating ([1]; rate 0.016 kg/ha) was 0.0. For the same molecule, the TRZAWR herbicidal rating ([1]; rate 0.032 kg/ha) was 0.0, the TRZAWR herbicidal rating ([1]; rate 0.062 kg/ha) was 0.0 and the TRZAWR herbicidal rating ([1]; rate 0.125 kg/ha) was 0.0.
